Laboratory results as given in PubChem BioAssay (NCI).
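Values below derive from 48-hour exposures of cells grown in 96-well plates, with endpoints linearly interpolated between the two concentrations bracketing the appropriate inhibition level. TGI denotes the concentration required for complete inhibition of growth.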

Key:
Assay in all cases: growth of human tumour cells (NCI), 48 h
[1] = test system: 786-0 renal
[2] = test system: A498 renal
[3] = test system: A549 NSCLC
[4] = test system: ACHN renal
[5] = test system: BT-549 breast
[6] = test system: CCRF-CEM leukemia
[7] = test system: COLO 205 colon
[8] = test system: DU-145 prostate
[9] = test system: EKVX NSCLC
[10] = test system: HCC-2998 colon
[11] = test system: HCT-116 colon
[12] = test system: HCT-15 colon
[13] = test system: HL-60(TB) leukemia
[14] = test system: HOP-62 NSCLC
[15] = test system: HOP-92 NSCLC
[16] = test system: HS 578T breast
[17] = test system: HT29 colon
[18] = test system: IGROV1 ovarian
[19] = test system: K-562 leukemia
[20] = test system: KM12 colon
[21] = test system: LOX IMVI melanoma
[22] = test system: M14 melanoma
[23] = test system: MALME-3M melanoma
[24] = test system: MCF7 breast
[25] = test system: MDA-MB-231 breast
[26] = test system: MDA-MB-435
[27] = test system: MDA-N
[28] = test system: MOLT-4 leukemia
[29] = test system: NCI-H226 lung
[30] = test system: NCI-H23 lung
[31] = test system: NCI-H460 lung
[32] = test system: NCI-H522 lung
[33] = test system: NCI/ADR-RES ovarian
[34] = test system: OVCAR-3 ovarian
[35] = test system: OVCAR-4 ovarian
[36] = test system: OVCAR-5 ovarian
[37] = test system: OVCAR-8 ovarian
[38] = test system: PC-3 prostate
[39] = test system: RPMI-8226 leukemia
[40] = test system: RXF 393 renal
[41] = test system: SF-268 CNS
[42] = test system: SF-295 CNS
[43] = test system: SF-539 CNS
[44] = test system: SK-MEL-2 melanoma
[45] = test system: SK-MEL-28 melanoma
[46] = test system: SK-MEL-5 melanoma
[47] = test system: SK-OV-3 ovarian
[48] = test system: SN12C renal
[49] = test system: SNB-19 CNS
[50] = test system: SNB-75 CNS
[51] = test system: SR leukemia
[52] = test system: SW-620 colon
[53] = test system: T-47D breast
[54] = test system: TK-10 renal
[55] = test system: U251 CNS
[56] = test system: UACC-257 melanoma
[57] = test system: UACC-62 melanoma
[58] = test system: UO-31 renal
[59] = test system: CAKI-1 renal

COC(=O)C1C(O)C(C)C(O)C(C)(O)C=C(C)C2=C3C(=C(C)C(=O)c4c(O)c(c(C)c(OC(C)=O)c43)NC(=O)C(C)=C/C=C\C(C)(O)C(O)C(C)C1O)OCO2 (stereo not drawn)
TGI [1]: > 100 µM
TGI [2]: > 100 µM
TGI [3]: > 100 µM
TGI [4]: > 100 µM
TGI [5]: > 100 µM
TGI [6]: > 100 µM
TGI [7]: 69.7 µM
TGI [8]: > 100 µM
TGI [9]: > 100 µM
TGI [10]: > 100 µM
TGI [11]: > 100 µM
TGI [12]: > 100 µM
TGI [13]: > 100 µM
TGI [14]: > 100 µM
TGI [15]: > 100 µM
TGI [16]: > 100 µM
TGI [17]: > 100 µM
TGI [18]: > 100 µM
TGI [19]: > 100 µM
TGI [20]: > 100 µM
TGI [21]: > 100 µM
TGI [22]: > 100 µM
TGI [23]: 74.2 µM
TGI [24]: > 100 µM
TGI [25]: > 100 µM
TGI [26]: > 100 µM
TGI [27]: > 100 µM
TGI [28]: > 100 µM
TGI [29]: > 100 µM
TGI [30]: > 100 µM
TGI [31]: > 100 µM
TGI [32]: > 100 µM
TGI [33]: > 100 µM
TGI [34]: 57 µM
TGI [35]: > 100 µM
TGI [36]: > 100 µM
TGI [37]: > 100 µM
TGI [38]: > 100 µM
TGI [39]: > 100 µM
TGI [40]: > 100 µM
TGI [41]: > 100 µM
TGI [42]: > 100 µM
TGI [43]: > 100 µM
TGI [44]: > 100 µM
TGI [45]: > 100 µM
TGI [46]: 47.7 µM
TGI [47]: > 100 µM
TGI [48]: > 100 µM
TGI [49]: > 100 µM
TGI [50]: > 100 µM
TGI [51]: > 100 µM
TGI [52]: > 100 µM
TGI [53]: > 100 µM
TGI [54]: > 100 µM
TGI [55]: > 100 µM
TGI [56]: 78 µM
TGI [57]: > 100 µM
TGI [58]: > 100 µM

COC(=O)c1ccc2cc(O)c(O)cc2c1
TGI [1]: > 100 µM
TGI [2]: > 100 µM
TGI [3]: > 100 µM
TGI [4]: > 100 µM
TGI [5]: > 90.6 µM
TGI [59]: > 100 µM
TGI [6]: > 60.4 µM
TGI [7]: > 100 µM
TGI [8]: > 100 µM
TGI [9]: > 100 µM
TGI [10]: > 100 µM
TGI [11]: > 100 µM
TGI [12]: > 100 µM
TGI [13]: > 100 µM
TGI [14]: > 100 µM
TGI [15]: > 100 µM
TGI [16]: > 100 µM
TGI [17]: > 100 µM
TGI [18]: > 100 µM
TGI [19]: > 100 µM
TGI [20]: > 100 µM
TGI [21]: > 100 µM
TGI [22]: > 100 µM
TGI [23]: > 79 µM
TGI [24]: > 100 µM
TGI [25]: > 100 µM
TGI [26]: > 100 µM
TGI [27]: > 100 µM
TGI [28]: > 68.8 µM
TGI [29]: > 100 µM
TGI [30]: > 82 µM
TGI [32]: > 64.7 µM
TGI [33]: > 78.2 µM
TGI [34]: > 100 µM
TGI [35]: > 100 µM
TGI [36]: > 100 µM
TGI [37]: > 91.3 µM
TGI [38]: > 100 µM
TGI [39]: > 100 µM
TGI [40]: > 100 µM
TGI [41]: > 81.1 µM
TGI [42]: > 100 µM
TGI [43]: > 100 µM
TGI [44]: > 100 µM
TGI [45]: > 100 µM
TGI [46]: > 70.2 µM
TGI [47]: > 100 µM
TGI [48]: > 100 µM
TGI [49]: > 100 µM
TGI [50]: > 100 µM
TGI [51]: > 60 µM
TGI [52]: > 100 µM
TGI [53]: > 100 µM
TGI [54]: > 100 µM
TGI [55]: > 100 µM
TGI [56]: > 96.7 µM
TGI [57]: > 79.3 µM
TGI [58]: 55.3 µM

Cn1c(CCC2(C)Cc3ccccc3C(=O)O2)cc2ccccc2c1=O (stereo not drawn)
TGI [1]: > 100 µM
TGI [2]: > 100 µM
TGI [3]: > 100 µM
TGI [5]: 44 µM
TGI [59]: 51.6 µM
TGI [6]: 27 µM
TGI [7]: 84 µM
TGI [8]: 59.8 µM
TGI [10]: > 100 µM
TGI [12]: > 100 µM
TGI [13]: > 100 µM
TGI [14]: 48 µM
TGI [15]: > 100 µM
TGI [16]: > 100 µM
TGI [18]: 86.6 µM
TGI [20]: 23.3 µM
TGI [22]: 33.5 µM
TGI [23]: > 100 µM
TGI [24]: 56.3 µM
TGI [25]: > 100 µM
TGI [26]: 41.9 µM
TGI [27]: 49.8 µM
TGI [29]: 54.7 µM
TGI [30]: 83 µM
TGI [31]: 76.8 µM
TGI [32]: 44.2 µM
TGI [33]: > 100 µM
TGI [34]: 54 µM
TGI [35]: > 100 µM
TGI [36]: > 100 µM
TGI [37]: > 100 µM
TGI [38]: 46.5 µM
TGI [39]: 48 µM
TGI [40]: 64.4 µM
TGI [42]: > 100 µM
TGI [43]: 74.4 µM
TGI [44]: 64.9 µM
TGI [45]: 76.6 µM
TGI [46]: 30.9 µM
TGI [47]: 65.7 µM
TGI [48]: > 100 µM
TGI [49]: > 100 µM
TGI [50]: 58.3 µM
TGI [51]: > 100 µM
TGI [53]: 83.3 µM
TGI [55]: > 100 µM
TGI [58]: 37.7 µM
